pIC50: −log10 of the molar value. A value given as a limit tells only on which side of the number the result lay.

Data on six compounds can be found in ChEMBL document CHEMBL1135401, “Pharmacophore mapping of a series of 2,4-diamino-5-deazapteridine inhibitors of Mycobacterium avium complex dihydrofolate reductase” (J Med Chem, 2002).

Assay [1] deals with T1, Dihydrofolate reductase (Homo sapiens, UniProt P00374).
T1 sequence (P00374 whole entry): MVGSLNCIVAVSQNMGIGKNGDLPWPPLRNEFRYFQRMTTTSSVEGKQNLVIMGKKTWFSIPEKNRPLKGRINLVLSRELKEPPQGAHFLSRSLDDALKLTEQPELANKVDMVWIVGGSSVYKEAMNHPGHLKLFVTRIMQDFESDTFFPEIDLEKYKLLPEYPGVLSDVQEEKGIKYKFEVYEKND

Assay [2] has as its target T2, Dihydrofolate reductase (Mycobacterium avium, UniProt O30463).
T2 sequence (O30463 whole entry): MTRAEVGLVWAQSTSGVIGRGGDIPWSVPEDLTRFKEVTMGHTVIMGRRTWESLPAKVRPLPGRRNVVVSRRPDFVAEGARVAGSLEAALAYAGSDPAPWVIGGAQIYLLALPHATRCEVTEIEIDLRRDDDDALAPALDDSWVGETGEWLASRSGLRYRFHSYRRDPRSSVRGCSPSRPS
The experiment in a line: Antimycobacterial activity against Mycobacterium avium complex dihydrofolate reductase (MAC DHFR).

Assay [3] concerns the target T1, Dihydrofolate reductase. The experiment in a line: Antimycobacterial activity against human dihydrofolate reductase (hDHFR).
Assay [4] addresses T2, Dihydrofolate reductase. The experiment in a line: Antimycobacterial activity scale was evaluated and found to be highly active against MAC Dihydrofolate reductase.
In assay [5] the target is T1, Dihydrofolate reductase. The assay can be described thus: Antimycobacterial activity against Human dihydrofolatereductase (hDHFR).

The pIC50 is the IC50 on a negative log10 scale, so that one unit is a factor of ten. As to `Cc1c(CNc2cccc3ccccc23)cnc2nc(N)nc(N)c12`, the results for the pIC50 on Dihydrofolate reductase [1], against Dihydrofolate reductase [2] and against Dihydrofolate reductase [3] were greater than 7.00, 9.09 and 8.37, respectively.

As for `CCCOc1ccc(NCc2cnc3nc(N)nc(N)c3c2C)cc1OC`, the figures for the pIC50 against Dihydrofolate reductase [2], on Dihydrofolate reductase [3] and at Dihydrofolate reductase [4] were 9.03, 7.82 and greater than 8.00, respectively.

As for `COc1cc(NCc2cnc3nc(N)nc(N)c3c2C)cc(OC)c1`, the figures for the pIC50 against Dihydrofolate reductase [2] and on Dihydrofolate reductase [5] were 7.70 and 7.82, respectively.

`Cc1c(CNc2ccc(OC(F)F)cc2)cnc2nc(N)nc(N)c12`: the pIC50 on Dihydrofolate reductase [2] was 8.96; on Dihydrofolate reductase [3], 7.70.

`Cc1c(CNc2ccc3ccccc3c2)cnc2nc(N)nc(N)c12`: the pIC50 on Dihydrofolate reductase [2] is 9.12; on Dihydrofolate reductase [3] it was 8.00.

Take `Cc1c(CNc2ccc(Cl)cc2)cnc2nc(N)nc(N)c12`: the pIC50 at Dihydrofolate reductase [2] was 9.08; on Dihydrofolate reductase [3], 7.57.
